Patent US20160242416A1, “FUNGICIDAL ISOXAZOLINE CARBINOLS” (E I DU PONT DE NEMOURS AND COMPANY, priority 2015, published 2016)

Legend:
[1] = system: Puccinia recondita f sp. tritici; experiment: Test F: wheat leaf rust, preventive spray on wheat seedlings; settings: 100 = 100% disease control; for Test F rating (% disease control): 10 ppm, wheat leaf rust, 0 = no control; for Test F disease control rating: 10 ppm test solution, 0 = no control relative to controls
[2] = system: Zymoseptoria tritici; experiment: Test E: wheat leaf blotch, preventive spray on wheat seedlings; settings: 100 = 100% disease control; for Test E rating (% disease control): 10 ppm, wheat leaf blotch, 0 = no control; for Test E disease control rating: 10 ppm test solution, 0 = no control relative to controls
[3] = system: Erysiphe graminis f sp. tritici; experiment: Test G: wheat powdery mildew, preventive spray on wheat seedlings; settings: 100 = 100% disease control; for Test G rating (% disease control): 10 ppm, wheat powdery mildew, 0 = no control; for Test G disease control rating: 10 ppm test solution, 0 = no control relative to controls
[4] = system: Stagonospora nodorum; experiment: Test D: wheat glume blotch, preventive spray on wheat seedlings; settings: 100 = 100% disease control; for Test D rating (% disease control): 10 ppm, wheat glume blotch, 0 = no control; for Test D disease control rating: 10 ppm test solution, 0 = no control relative to controls
Excerpt: (§1) General protocol for preparing test solutions for Tests A-G: the test compounds were first dissolved in acetone in an amount equal to 3% of the final volume and then suspended at the desired concentration (in ppm) in acetone and purified water (50/50 mix by volume) containing 250 ppm of the surfactant PEG400 (polyhydric alcohol esters). The resulting test suspensions were then used in Tests A-G. Compounds were sprayed at a concentration of 50 ppm (*) or 10 ppm to the point of run-off on the test plants, the equivalent of a rate of 200 g/ha or 40 g/ha, respectively.
The test solution was sprayed to the point of run-off on wheat seedlings. The following day the seedlings were inoculated with a spore suspension of Stagonospora nodorum (also known as Septoria nodorum; the causal agent of wheat glume blotch) and incubated in a saturated atmosphere at 20° C. for 48 h, and then moved to a growth chamber at 20° C. for 6 days, after which time visual disease ratings were made.
(§2) Compounds with an asterisks (*) were applied at a concentration of 50 ppm, otherwise test solutions were applied at 10 ppm.

[5] = system: Botrytis cinerea; experiment: Test B: gray mold, preventive spray on tomato seedlings; settings: 100 = 100% disease control; for Test B rating (% disease control): 10 ppm, gray mold on tomato, 0 = no control; for Test B disease control rating: 10 ppm test solution, 0 = no control relative to controls
Excerpt: as §1
The test solution was sprayed to the point of run-off on tomato seedlings. The following day the seedlings were inoculated with a spore suspension of Botrytis cinerea (the causal agent of gray mold on many crops) and incubated in a saturated atmosphere at 20° C. for 48 h, and moved to a growth chamber at 27° C. for 2 days, after which time visual disease ratings were made.
as §2

SMILES	Test F rating (% disease control) [1]	Test E rating (% disease control) [2]	Test G rating (% disease control) [3]	Test D rating (% disease control) [4]	Test B rating (% disease control) [5]	Test F disease control rating [1]	Test E disease control rating [2]	Test G disease control rating [3]	Test D disease control rating [4]	Test B disease control rating [5]
Cn1nc(C(F)(F)F)cc1OCC1CC(C(O)(Cn2cncn2)C(C)(C)C)=NO1 (single isomer, unassigned) [Compound 47]	76%	3%	84%	0%	19%	–	–	–	–	–
CC(C)(C)C(O)(Cn1cncn1)C1=NOC(COc2cccc(Cl)c2)C1 (single isomer, unassigned) [Compound 231]	–	–	–	–	–	100%	6%	99%	100%	80%
OC(Cn1cncn1)(C1=NOC(COc2ccc3c(c2)OCO3)C1)c1ccc(Cl)cc1 (single isomer, unassigned) [Compound 43]	100%	0%	98%	38%	31%	–	–	–	–	–
OC(Cn1cncn1)(C1=NOC(COc2ncc(Cl)cn2)C1)c1ccc(Cl)cc1 (single isomer, unassigned) [Compound 166]	41%	0%	–	0%	0%	–	–	–	–	–
OC(Cn1cncn1)(C1=NOC(COc2ccccc2)C1)c1ccc(Cl)cc1 (single isomer, unassigned) [Compound 145]	–	28%	88%	–	0%	–	–	–	–	–
CC1(COc2ccc(Cl)cc2)CC(C(O)(Cn2cncn2)c2ccc(Cl)cc2)=NO1 (single isomer, unassigned) [Compound 218]	–	–	–	–	–	100%	0%	–	21%	0%
CC1(COc2ccc(Cl)cc2)CC(C(O)(Cn2cncn2)c2ccc(Cl)cc2)=NO1 (single isomer, unassigned) [Compound 219]	–	–	–	–	–	95%	0%	–	0%	0%
CC1(COc2ccc(Cl)cc2)CC(C(O)(Cn2cncn2)C(C)(C)C)=NO1 (single isomer, unassigned) [Compound 217]	–	–	–	–	–	100%	0%	–	92%	0%
CC#CC(O)(Cn1cncn1)C1=NOC(c2ccc(Cl)cc2)C1 (stereo not drawn) [Compound 103, α-[5-(4-chlorophenyl)-4,5-dihydro-3-isoxazolyl]-α-1-propyn-1-yl-1H-1,2,4-triazole-1-ethanol]	94%	0%	92%	–	0%	–	–	–	–	–
CC(C)(C)C(O)(Cn1cncn1)C1=NOC(COCc2ccc(Cl)cc2)C1 (single isomer, unassigned) [Compound 263]	–	–	–	–	–	87%	0%	99%	99%	–
OC(COc1ccc(Cl)cc1)(Cn1cncn1)C1=NOC(c2ccc(Cl)cc2)C1 (centres unmarked) [Compound 272]	–	–	–	–	–	100%	0%	99%	69%	–
OC(Cn1cncn1)(C1=NOC(COc2ccc(Cl)cc2)C1)C1(Cl)CC1 (single isomer, unassigned) [Compound 252]	–	–	–	–	–	100%	2%	89%	78%	–
CC(C)(C)C(O)(Cn1cnnn1)C1=NOC(COc2ccc(Cl)cc2)C1 (centres unmarked) [Compound 247]	–	–	–	–	–	97%	24%	0%	0%	–
OC(COc1ccc(Cl)cc1)(Cn1cncn1)C1=NOC(c2ccc(Cl)cc2)C1 (centres unmarked) [Compound 273]	–	–	–	–	–	98%	2%	69%	11%	–
CC(C)(C)C(O)(Cn1cncn1)C1=NOC(COc2ccc(Cl)cc2)C1 (single isomer, unassigned) [Compound 242]	–	–	–	–	–	99%	0%	68%	0%	–
CC(C)(C)CC(O)(Cn1cncn1)C1=NOC(COc2ccc(F)cc2)C1 (single isomer, unassigned) [Compound 244]	–	–	–	–	–	100%	0%	99%	99%	–
COc1ccc(OCC2CC(C(O)(Cn3cncn3)C(C)(C)C)=NO2)cc1 (single isomer, unassigned) [Compound 260]	–	–	–	–	–	98%	1%	100%	99%	–

SMILES	Test F rating (% disease control) [1]	Test E rating (% disease control) [2]	Test G rating (% disease control) [3]	Test D rating (% disease control) [4]	Test B rating (% disease control) [5]	Test F disease control rating [1]	Test E disease control rating [2]	Test G disease control rating [3]	Test D disease control rating [4]	Test B disease control rating [5]
CC1(COc2ccc(Cl)cc2)CC(C(O)(Cn2cncn2)C(C)(C)C)=NO1 (single isomer, unassigned) [Compound 216]	–	–	–	–	–	100%	0%	–	86%	0%
CCC(C)(C)C(O)(Cn1cncn1)C1=NOC(COc2ccc(F)cc2)C1 (single isomer, unassigned) [Compound 249]	–	–	–	–	–	100%	0%	100%	100%	–
CC(C)(C)C(O)(Cn1cncn1)C1=NOC(COc2cccc(C(F)(F)F)c2)C1 (single isomer, unassigned) [Compound 254]	–	–	–	–	–	100%	0%	99%	99%	–
OC(Cn1cncn1)(C1=NOC(COc2ncc(Cl)cn2)C1)c1ccc(Cl)cc1 (single isomer, unassigned) [Compound 167]	98%	0%	–	0%	0%	–	–	–	–	–
CC(C)(C)C(O)(Cn1cncn1)C1=NOC(COc2ccc(Cl)cc2Cl)C1 (single isomer, unassigned) [Compound 256]	–	–	–	–	–	100%	0%	99%	97%	–
CC(C)(C)C(O)(Cn1cncn1)C1=NOC(CCOc2ccc(Cl)cc2)C1 (single isomer, unassigned) [Compound 208]	100%	74%	100%	100%	–	–	–	–	–	–
CC(C)(C)C(O)(Cn1cncn1)C1=NOC(CCOc2ccc(Cl)cc2)C1 (single isomer, unassigned) [Compound 209]	100%	11%	100%	99%	–	–	–	–	–	–
OC(Cn1cncn1)(Cn1cncn1)C1=NOC(COc2ccc(Cl)cc2)C1 (centres unmarked) [Compound 248]	–	–	–	–	–	100%	0%	98%	0%	–
CC(C)(C)C(O)(Cn1cncn1)C1=NOC(COc2ccc(Cl)c(Cl)c2)C1 (single isomer, unassigned) [Compound 257]	–	–	–	–	–	100%	29%	100%	100%	–
OC(Cn1cncn1)(C1=NOC(Cc2ccc(-c3ccccc3)cc2)C1)c1ccc(Cl)cc1 (single isomer, unassigned) [Compound 205]	68%	6%	98%	10%	–	–	–	–	–	–
CCC(C)(C)C(O)(Cn1cncn1)C1=NOC(COc2ccc(F)cc2)C1 (single isomer, unassigned) [Compound 250]	–	–	–	–	–	99%	0%	99%	64%	–
CC(C)(C)C(O)(Cn1cncn1)C1=NOC(COc2ccc(-c3ccccc3)cc2)C1 (single isomer, unassigned) [Compound 229]	–	–	–	–	–	0%	6%	98%	0%	–
CC1(C(O)(Cn2cncn2)C2=NOC(COc3ccc(C(F)(F)F)cc3)C2)CC1 (single isomer, unassigned) [Compound 237]	–	–	–	–	–	100%	0%	98%	89%	–
CC(C)(C)C(O)(Cn1cncn1)C1=NOC(COc2ccc(-c3ccccc3)cc2)C1 (single isomer, unassigned) [Compound 228]	–	–	–	–	–	86%	12%	99%	0%	–
CC(C)(C)C(O)(Cn1cncn1)C1=NOC(COc2ccc(Cl)c(Cl)c2)C1 (single isomer, unassigned) [Compound 258]	–	–	–	–	–	100%	0%	100%	100%	–
CC(C)(C)C(O)(Cn1cnnn1)C1=NOC(COc2ccc(Cl)cc2)C1 (centres unmarked) [Compound 246]	–	–	–	–	–	100%	0%	95%	98%	–
